Results: patent US20080242684A1, “METHODS OF ADMINISTRATION OF ADENOSINE A1 RECEPTOR ANTAGONISTS” (priority 2007, published 2008)

Columns and labels:
[1] = test system: Subjects presenting with congestive heart failure who are refractory to high dose diuretic therapy; assay: Example 3: IV KW-3902 in subjects refractory to standard IV diuretic therapy; assay type: in vivo, human; settings: 20-40 mg KW-3902 IV over 3-5 hours
Procedure: Changes in urine output are measured hourly. The subjects' creatinine clearance rate is measured every 3 hours. […] A dose of between about 20 mg and about 40 mg, preferably about 30 mg of KW-3902 in injectable form is infused through the IV line over the course of about 3 to about 5 hours, and preferably over the course of 4 hours. The subject receives continued treatment with furosemide. The subject's fluid intake and output, urine volume, serum and urine creatinine levels, electrolytes and cardiac function are monitored.

[2] = test system: hospitalized subject treated with maximum amounts of IV diuretic and still fluid overloaded; assay: Example 4: IV KW-3902 with continued furosemide in a hospitalized subject refractory to IV diuretic; assay type: in vivo, human; settings: 20-40 mg KW-3902 IV over 3-5 hours
Procedure: A hospitalized subject who has been treated with maximum amounts of IV diuretic and is still symptomatic, fluid overloaded, or whose urine output is less than fluid intake is evaluated for further treatment. A dose of a KW-3902 between about 20 mg and about 40 mg, and preferably about 30 mg injectable form is infused through the IV line over the course of about 3 hours to about 5 hours, and preferably over the course of about 4 hours. […] The subject's fluid intake and output, urine volume, serum and urine creatinine levels, electrolytes and cardiac function are monitored.

[3] = test system: subject with fluid overload and impaired renal function; assay: Example 5: IV KW-3902 concurrent with diuretic therapy in fluid overload and impaired renal function; assay type: in vivo, human; settings: 20-40 mg KW-3902 IV over 3-5 hours, concurrent with other diuretic therapy
Procedure: A subject with fluid overload, as manifested by peripheral edema, dyspnea, and/or other signs or symptoms presents themself to the physician's office or clinic. The subject has been on a therapy regimen that includes oral diuretics and, in addition, to needing a higher dose of diuretics to manage his/her fluid balance, the subject is now showing impaired renal function. […] The subject is administered a dose of about 20 mg to about 40 mg KW-3902 intravenously over about 3 to about 5 hours, preferably over the course of about 4 hours, concurrent with other diuretic therapy. The subject's fluid intake and output, urine volume, serum and urine creatinine levels, electrolytes and cardiac function are monitored.

[4] = test system: subject with fluid overload; assay: Example 7: IV KW-3902 concurrent with diuretic therapy in fluid overload; assay type: in vivo, human; settings: 20-40 mg KW-3902 IV over 3-5 hours
Procedure: A subject with fluid overload, as manifested by peripheral edema, dyspnea, and/or other signs or symptoms presents to the physician's office or clinic. The subject has been on a therapy regimen that includes oral diuretics and needs a higher dose of diuretics to manage his/her fluid balance. To delay or prevent the onset of renal impairment and/or to delay the need to use higher dosages of standard diuretics, the subject is administered a dose of about 20 mg to about 40 mg, and preferably a dose of about 30 mg, KW-3902 IV, administered over the course of about 3 to about 5 hours, and preferably over the course of about 4 hours. The subject also receives concurrent with their diuretic therapy. The subject's fluid intake and output, urine volume, serum and urine creatinine levels, electrolytes and cardiac function are monitored.

[5] = test system: Subjects presenting with New York Heart Association Class II-IV CHF and estimated creatinine clearance between 20 mL/min and 80 mL/min
Procedure: The subjects are taking an oral loop diuretic. The subjects can also present with a one of the following: history of seizure, stroke within two years, brain tumor, brain surgery within two years, encephalitis within two years, history of penetrating head trauma, closed head injury with loss of consciousness over 30 minutes within two years, history of alcohol withdrawal seizure, advanced Alzheimer's disease, or advanced multiple sclerosis (“at risk” subjects). The subjects' medical history, physical examination, classification of CHF, vital signs, body weight, CHF signs and symptom scores, Holter monitor recording, chest X-ray, CBC chemistries, creatinine clearance, fluid intake, and urine output are determined on pre-treatment days −2 to −1, days 1 to 3 of the Treatment Period, day 4/early Termination and a follow up contact at day 30. […] On day 1, the composition comprising KW-3902 (or placebo) is administered as a monotherapy. 6 hours after administration of KW-3902, IV loop diuretic is given to all treatment groups as needed. […] Final laboratory data are collected on day 4 or early termination. Follow-up phone contact is conducted on day 30.

CCCn1c(=O)c2[nH]c(C34CC5CC(CC3C5)C4)nc2n(CCC)c1=O [KW-3902, 8-(3-noradamantyl)-1,3-dipropylxanthine]
seizures during the course of treatment ([1]; continued furosemide): do not experience seizures | creatinine clearance ([1]; compared to placebo): improvement in creatinine clearance | hourly urine volume over the ensuing 9 hours ([1]; compared to placebo): increased hourly urine volume | diuresis [2]: improved diuresis | seizures [2]: do not experience seizures | creatinine clearance [3]: improved diuresis and creatinine clearance | diuresis [3]: improved diuresis | seizures throughout the course of therapy [3]: do no experience seizures | diuresis [4]: improved diuresis | renal function [4]: renal function is maintained | seizure throughout the course of treatment [4]: do not experience a seizure | kidney function as measured by serum creatinine levels compared to the baseline levels ([5]; 20-40 mg (preferably about 30 mg) KW-3902 IV over about 4 hours, days 1-3, effect greater than placebo): improvement in kidney function | seizures throughout the treatment period ([5]; at risk subjects): do not experience seizures | diuresis, as measured by urine output ([5]; combination of KW-3902 and non adenosine-modifying diuretics such as furosemide): synergistic beneficial effect on diuresis
